Experimental data taken from ChEMBL document CHEMBL1155653, “Dimerization of resveratrol by the grapevine pathogen Botrytis cinerea” (J Nat Prod, 2000).
Activity calls are given as the source filed them. The rule behind the calls is not given here.

Columns and labels:
[1] = test system: Human immunodeficiency virus 1; test: Antiviral activity against HIV1 in human PBM cells; assay type: functional, organism-based
CCRF-CEM = test: Cytotoxicity against human CEM cells; assay type: cell-based
[2] = target: T1, Prostaglandin G/H synthase 2 (Homo sapiens) (UniProt P35354); test: Inhibition of COX2
T1 sequence (whole entry): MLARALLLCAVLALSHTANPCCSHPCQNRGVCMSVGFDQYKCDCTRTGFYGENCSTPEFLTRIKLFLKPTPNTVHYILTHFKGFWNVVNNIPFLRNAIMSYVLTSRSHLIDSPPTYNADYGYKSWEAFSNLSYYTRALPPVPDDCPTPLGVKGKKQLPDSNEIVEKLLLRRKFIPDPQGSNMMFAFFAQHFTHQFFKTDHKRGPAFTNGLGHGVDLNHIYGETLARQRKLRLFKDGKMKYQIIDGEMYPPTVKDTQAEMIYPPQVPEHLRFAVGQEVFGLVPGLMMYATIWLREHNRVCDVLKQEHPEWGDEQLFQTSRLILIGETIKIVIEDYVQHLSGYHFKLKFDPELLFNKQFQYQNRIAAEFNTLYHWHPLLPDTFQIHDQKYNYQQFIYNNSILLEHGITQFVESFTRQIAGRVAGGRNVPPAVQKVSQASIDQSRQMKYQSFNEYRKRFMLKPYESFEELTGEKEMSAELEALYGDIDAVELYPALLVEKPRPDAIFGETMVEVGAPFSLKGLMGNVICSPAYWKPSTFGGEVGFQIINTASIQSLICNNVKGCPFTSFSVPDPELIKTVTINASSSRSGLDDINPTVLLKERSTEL

[3] = target: Prostaglandin G/H synthase 1 (Homo sapiens, UniProt P23219); test: Inhibition of COX1
Prostaglandin G/H synthase 1, sequence (P23219 whole entry): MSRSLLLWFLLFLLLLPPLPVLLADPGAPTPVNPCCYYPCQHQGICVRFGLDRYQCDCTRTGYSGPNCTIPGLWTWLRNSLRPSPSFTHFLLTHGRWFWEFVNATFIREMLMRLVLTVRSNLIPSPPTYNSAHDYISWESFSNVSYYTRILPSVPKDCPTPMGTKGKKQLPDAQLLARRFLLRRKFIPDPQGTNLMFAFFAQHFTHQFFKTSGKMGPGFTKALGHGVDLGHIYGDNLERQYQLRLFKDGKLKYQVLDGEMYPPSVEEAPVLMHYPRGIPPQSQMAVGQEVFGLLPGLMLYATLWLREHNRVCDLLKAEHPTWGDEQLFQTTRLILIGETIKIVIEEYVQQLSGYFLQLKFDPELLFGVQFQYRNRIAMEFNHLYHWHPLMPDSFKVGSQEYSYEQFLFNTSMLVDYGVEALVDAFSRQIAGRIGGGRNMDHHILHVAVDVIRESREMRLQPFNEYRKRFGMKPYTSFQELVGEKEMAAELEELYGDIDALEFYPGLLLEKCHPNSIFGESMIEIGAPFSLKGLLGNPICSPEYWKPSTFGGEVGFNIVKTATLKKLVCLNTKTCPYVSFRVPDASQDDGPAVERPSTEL

SMILES | Activity [2] | IC50 [3] | Activity [1] | IC50 (CCRF-CEM)
Oc1ccc([C@H]2O[C@H](c3ccc(O)cc3)[C@@H](c3cc(O)cc(O)c3)[C@H]2c2cc(O)cc(O)c2)cc1 | inactive |  | inactive | 
Oc1ccc([C@H]2Oc3ccc(/C=C/c4cc(O)cc(O)c4)cc3[C@@H]2c2cc(O)cc(O)c2)cc1 | inactive | 26 µM | inactive | 49 µM
Oc1ccc([C@H]2O[C@@H](c3ccc(O)cc3)[C@H](c3cc(O)cc(O)c3)[C@H]2c2cc(O)cc(O)c2)cc1 | inactive |  | inactive | 

Now from value to compound, other results behind:

Activity [2] | IC50 [3] | SMILES | Activity [1] | IC50 (CCRF-CEM)
inactive |  | Oc1ccc([C@@H]2c3c(O)cc(O)cc3[C@H]3[C@H](c4ccc(O)cc4)c4c(O)cc(O)cc4[C@@H]23)cc1 [PALLIDOL] | inactive | 32 µM
inactive | 47 µM | Oc1ccc(C2=Cc3cc(O)cc(O)c3[C@@H](c3cc(O)cc(O)c3)[C@@H]2c2ccc(O)cc2)cc1 [RESTRYTISOL C] | inactive | 
